For data set [1] the following is noted: cited from earlier work.
A short description of data set [2]: In vitro dissolution rate test in phosphate buffer (1000 ml, 50 turns per minute, HPLC). Further details: unit not given here. In kind it is physicochemical. How it is done: PVP was used as the carrier material. The solid dispersion is prepared by solvent method (drug:carrier=1:10), and the method to evaluate solubility in vitro is given as follows:
Using this method, 5 ml of the solution was taken at 5 min, 10 min, 15 min, 20 min, 30 min, 45 min, and 60 min (5 ml dissolution medium was supplemented after the 5 ml solution was taken out) and filtered. The filtrate was taken as the test solution and checked for purity using HPLC.
(2) A solid dispersion which contains the drug substance 5 mg, according to the method of dissolution rate test and 1000 ml at pH 6.8 phosphate buffer was used as dissolution medium, with a rotating speed of 50 turns per minute. Using this method, 5 ml of the solution was taken at 5 min, 10 min, 15 min, 20 min, 30 min, 45 min, and 60 min (5 ml dissolution medium was supplemented after the 5 ml solution was taken out) and filtered. The filtrate was taken as the test solution and checked for purity using HPLC.
The dissolution rate of examples 1-11 were evaluated by the evaluation system mentioned above.
The dissolution rate was evaluated in pH 4.5 phosphate buffer:
The dissolution rate was evaluated in pH6.8 phosphate buffer: […]

The conditions of data set [3]: drugs administrated alone; cited from earlier work.
The nature of data set [4]: In vitro dissolution rate test in phosphate buffer (1000 ml, 50 turns per minute, HPLC). The data set is classed as physicochemical.

Each structure is given as a SMILES string. Where a name gives a salt, the structure may show the parent alone. Read-outs that look alike come from different tables or passages of the source.

With `CC(=O)Oc1cc2c(s1)CCN(C(C(=O)C1CC1)c1ccccc1F)C2` (stereo not drawn) [Prasugrel hydrochloride, prasugrel hydrochloride], the solubility result in data set [1] (pH 1-4) is listed as “slightly soluble”; in data set [1] (pH 5) it was “very slightly soluble”; in data set [1] (pH 6-7), “insoluble”. The dissolution rate in data set [2] (pH 4.5 phosphate buffer, 0 min) is 0; in data set [2] (pH 4.5 phosphate buffer, 5 min) it was 16.71; in data set [2] (pH 4.5 phosphate buffer, 10 min), 26.66; in data set [2] (pH 4.5 phosphate buffer, 15 min), 32.45; in data set [2] (pH 4.5 phosphate buffer, 20 min), 36.78; in data set [2] (pH 4.5 phosphate buffer, 30 min), 43.42. Also, the dissolution rate in data set [2] (pH 6.8 phosphate buffer, 0 min) is on record as 0; in data set [2] (pH 6.8 phosphate buffer, 5 min) it was 13.69; in data set [2] (pH 6.8 phosphate buffer, 15 min), 21.03; in data set [2] (pH 6.8 phosphate buffer, 30 min), 23.99; in data set [2] (pH 6.8 phosphate buffer, 45 min), 25.13; in data set [2] (pH 6.8 phosphate buffer, 60 min) it was 25.62. Further, the “bioavailability, hydrochloride vs free base form” value in data set [3] was “about equal”.

In the case of `CC(=O)Oc1cc2c(s1)CCN(C(C(=O)C1CC1)c1ccccc1F)C2` (stereo not drawn) [prasugrel, 5-(2-cyclopropyl-1-(2-fluorophenyl)-2-oxoethyl)-4,5,6,7-tetrahydrothieno[3,2-c]pyridin-2-yl acetate], the “dissolution rate after micronization only” value in data set [4] (pH4.5 and pH6.8, compared to prasugrel hydrochloride prepared by only micronization) was “improved, but there is still a gap”. The “solubility after micronization only” value in data set [4] (pH 6.8, compared to prasugrel hydrochloride) is on record as “poorer than that of prasugrel hydrochloride”.
